The text below walks through data of doi:10.1101/2025.01.28.635346v1 (bioRxiv, 2025).

Like-named read-outs stand apart in the source and are kept apart here. Bridge positions count the residues as written; N and C are the ends. Side chains are listed from the residue outwards. Peptide text beside a SMILES is read from it. * marks the point of attachment. Butanoyl(4-(4-I-phenyl)) = O=C(CCCc1ccc(I)cc1)*; PEG2 = NCCOCCOCCC(=O)O

Data set [1] concerns the target integrin αvβ8 (Homo sapiens, UniProt P06756+P26012). Nature of the data set: ELISA competition assay, integrin αvβ8 binding to LAP.
Data set [2] addresses integrin αvβ6 (Homo sapiens, UniProt P06756+P18564). Nature of the data set: ELISA competition assay, integrin αvβ6 binding to LAP. Background: In an ELISA, binding on a coated surface is turned into a signal by an enzyme label.
Data set [3] can be described thus: Pharmacokinetics in female Balb/c mice. The class given is in vivo, mouse.
Where [4] appears, read: αvβ6 IC50, ELISA competition vs LAP, mean, n ≥ 3.
Where [5] appears, read: Table S3E, IP 10 mg/kg, mouse, animal 1F001.
The mark [6] stands for this setting: Table S3E, IP 10 mg/kg, mouse, animal 1F002.
[7] abbreviates: Table S3E, IP 10 mg/kg, mouse, animal 1F003.
Setting [8] is: Table S3E, IP 10 mg/kg, mouse, animal 1F005.
[9] abbreviates: female, Balb/c, mouse, plasma, ip, 10 mg/kg.

In general, IC50 refers to the point on the concentration scale where inhibition reaches its midpoint. Lower therefore signals inhibition by little substance. Turning to `CC[C@H](C)[C@@H]1NC(=O)[C@H](CO)NC(=O)CC[C@@H](C(=O)N[C@@H](CCCNC(=N)N)C(=O)NCC(=O)N[C@@H](CC(=O)O)C(=O)N[C@@H](CC(C)C)C(=O)N[C@@H](CCC(N)=O)C(=O)N[C@H](C(=O)N[C@@H](Cc2ccc(O)cc2)C(=O)N[C@@H](Cc2c[nH]c3ccccc23)C(=O)N2CCC[C@H]2C(=O)O)[C@@H](C)O)NC(=O)[C@H](CCCNC(=N)N)NC(=O)[C@H](CC(C)C)NC(=O)CNC(=O)[C@H](CO)NC(=O)[C@H](CC(=O)O)NC(=O)CNC1=O` [lassotide 18] (SIGDSGLRERGDLQTYWP-OH; lactam N-9; C-terminus assumed), the IC50 in data set [1] is 2470 nM; in data set [2] (setting [4]), 3200 nM.

On to `CC[C@H](C)[C@H](NC(=O)[C@H](CC(C)C)NC(=O)[C@H](CC(=O)O)NC(=O)CNC(=O)[C@H](CCCNC(=N)N)NC(=O)[C@H](C)NC(=O)[C@H](Cc1ccccc1)NC(=O)[C@H](Cc1ccc(O)cc1)NC(=O)[C@@H]1CCC(=O)NCC(=O)NCC(=O)N[C@@H](C)C(=O)NCC(=O)N[C@@H](Cc2c[nH]cn2)C(=O)N[C@@H](C(C)C)C(=O)N2CCC[C@H]2C(=O)N1)C(=O)N[C@@H](CO)C(=O)N[C@@H](Cc1ccccc1)C(=O)N[C@@H](Cc1ccc(O)cc1)C(=O)NCC(=O)O` [lassotide 19] (GGAGHVPEYFARGDLISFYG-OH; lactam N-8; C-terminus assumed), for which the values for the concentration for half-maximal inhibition (IC50) in data set [1] and in data set [2] (setting [4]) were 24 nM and 66 nM, respectively.

Regarding `CC[C@H](C)[C@H](NC(=O)[C@H](CC(C)C)NC(=O)[C@H](CC(=O)O)NC(=O)CNC(=O)[C@H](CCCNC(=N)N)NC(=O)[C@@H](NC(=O)[C@H](Cc1ccccc1)NC(=O)[C@H](Cc1ccc(O)cc1)NC(=O)[C@@H]1CCC(=O)NCC(=O)NCC(=O)N[C@@H](CCCCN)C(=O)NCC(=O)N[C@@H](Cc2c[nH]cn2)C(=O)N[C@@H](C(C)C)C(=O)N2CCC[C@H]2C(=O)N1)C(C)C)C(=O)N[C@@H](CO)C(=O)N[C@@H](Cc1ccccc1)C(=O)N[C@@H](Cc1ccc(O)cc1)C(=O)NCC(=O)O` [lassotide 28] (GGKGHVPEYFVRGDLISFYG-OH; lactam N-8; C-terminus assumed), the IC50 in data set [1] is 48 nM; in data set [2] (setting [4]), 44 nM.

In the case of `CC[C@H](C)[C@H](NC(=O)[C@H](CC(C)C)NC(=O)[C@H](CC(=O)O)NC(=O)CNC(=O)[C@H](CCCNC(=N)N)NC(=O)[C@@H](NC(=O)[C@H](Cc1ccccc1)NC(=O)[C@H](Cc1ccc(O)cc1)NC(=O)[C@@H]1CCC(=O)NCC(=O)NCC(=O)N[C@@H](CCC(=O)O)C(=O)NCC(=O)N[C@@H](Cc2c[nH]cn2)C(=O)N[C@@H](C(C)C)C(=O)N2CCC[C@H]2C(=O)N1)C(C)C)C(=O)N[C@@H](CO)C(=O)N[C@@H](Cc1ccccc1)C(=O)N[C@@H](Cc1ccc(O)cc1)C(=O)NCC(=O)O` [lassotide 29] (GGEGHVPEYFVRGDLISFYG-OH; lactam N-8; C-terminus assumed), the 50% inhibitory concentration (IC50) in data set [1] stood at 47 nM; in data set [2] (setting [4]), 104 nM.

As to `CC[C@H](C)[C@@H]1NC(=O)[C@H](CO)NC(=O)CNC(=O)[C@H](CCCNC(=N)N)NC(=O)CNC(=O)CNC(=O)CC[C@@H](C(=O)N[C@@H](Cc2ccc(O)cc2)C(=O)N[C@@H](Cc2ccccc2)C(=O)N[C@@H](CCC(N)=O)C(=O)N[C@@H](CCCNC(=N)N)C(=O)NCC(=O)N[C@@H](CC(=O)O)C(=O)N[C@@H](CC(C)C)C(=O)N[C@@H](CCC(N)=O)C(=O)N[C@@H](CO)C(=O)N[C@@H](Cc2ccccc2)C(=O)N[C@@H](Cc2ccc(O)cc2)C(=O)NCC(=O)O)NC(=O)[C@@H]2CCCN2C1=O` [lassotide 44] (GGRGSIPEYFQRGDLQSFYG-OH; lactam N-8; C-terminus assumed), the IC50 in data set [2] came to 1.4 nM.

By CL/F is commonly meant the apparent clearance, not corrected for the fraction that reaches the circulation. As a reminder, the Cmax is the maximum level reached in the sampled fluid or tissue. A word on the Tmax: it is the time at which the peak concentration occurs. Broadly, the AUC(0-t) is exposure summed from dosing to a finite time, without extrapolation to infinity. A low value points to low exposure. The Vd/F is the apparent distribution volume after extravascular dosing. For orientation: half-life means the time needed for the level to fall by half in the phase considered. In the case of `CC[C@H](C)[C@H](NC(=O)[C@H](CC(C)C)NC(=O)[C@H](CC(=O)O)NC(=O)CNC(=O)[C@H](CCCNC(=N)N)NC(=O)[C@@H](NC(=O)[C@H](Cc1ccccc1)NC(=O)[C@H](Cc1ccc(O)cc1)NC(=O)[C@@H]1CCC(=O)NCC(=O)NCC(=O)N[C@@H](CCCCNC(=O)CCOCCOCCNC(=O)CCCc2ccc(I)cc2)C(=O)NCC(=O)N[C@@H](Cc2c[nH]cn2)C(=O)N[C@@H](C(C)C)C(=O)N2CCC[C@H]2C(=O)N1)C(C)C)C(=O)N[C@@H](CO)C(=O)N[C@@H](Cc1ccccc1)C(=O)N[C@@H](Cc1ccc(O)cc1)C(=O)N[C@@H](CCCCNC(=O)CCOCCOCCNC(=O)CCCc1ccc(I)cc1)C(=O)O` [lassotide 52] (GGK([PEG2-Butanoyl(4-(4-I-phenyl))])GHVPEYFVRGDLISFYK([PEG2-Butanoyl(4-(4-I-phenyl))])-OH; lactam N-8), the “further increase in half-life” value in data set [3] (52 vs 47, 10 mg/kg IP, mice) is recorded as 4.4 fold. Besides, the “Plasma Concentration” value in data set [3] (IP 10 mg/kg, 1.0 h, animal 1F001) is reported as 31600 ng/mL; in data set [3] (IP 10 mg/kg, 1.0 h, animal 1F002), 21000 ng/mL; in data set [3] (IP 10 mg/kg, 1.0 h, animal 1F003) it was 36300 ng/mL; in data set [3] (IP 10 mg/kg, 1.0 h, animal 1F005), 34200 ng/mL; in data set [3] (IP 10 mg/kg, 2.0 h, animal 1F001), 50800 ng/mL; in data set [3] (IP 10 mg/kg, 2.0 h, animal 1F002) it was 35000 ng/mL. Further, the “Plasma Concentration” value in data set [3] (IP 10 mg/kg, 2.0 h, animal 1F003) is recorded as 53100 ng/mL; in data set [3] (IP 10 mg/kg, 2.0 h, animal 1F005) it was 40000 ng/mL; in data set [3] (IP 10 mg/kg, 4.0 h, animal 1F001) it was 54500 ng/mL; in data set [3] (IP 10 mg/kg, 4.0 h, animal 1F002), 51100 ng/mL; in data set [3] (IP 10 mg/kg, 4.0 h, animal 1F003) it was 59300 ng/mL; in data set [3] (IP 10 mg/kg, 4.0 h, animal 1F005), 43400 ng/mL. Moreover, the “Plasma Concentration” value was 45300 ng/mL in data set [3] (IP 10 mg/kg, 8.0 h, animal 1F001); 43800 ng/mL in data set [3] (IP 10 mg/kg, 8.0 h, animal 1F002); 51000 ng/mL in data set [3] (IP 10 mg/kg, 8.0 h, animal 1F003); 35200 ng/mL in data set [3] (IP 10 mg/kg, 8.0 h, animal 1F005); 37900 ng/mL in data set [3] (IP 10 mg/kg, 12 h, animal 1F001); 43800 ng/mL in data set [3] (IP 10 mg/kg, 12 h, animal 1F002). In addition, the “Plasma Concentration” value amounted to 43800 ng/mL in data set [3] (IP 10 mg/kg, 12 h, animal 1F003); 30500 ng/mL in data set [3] (IP 10 mg/kg, 12 h, animal 1F005); 22500 ng/mL in data set [3] (IP 10 mg/kg, 24 h, animal 1F001); 24300 ng/mL in data set [3] (IP 10 mg/kg, 24 h, animal 1F002); 34800 ng/mL in data set [3] (IP 10 mg/kg, 24 h, animal 1F003); 19900 ng/mL in data set [3] (IP 10 mg/kg, 24 h, animal 1F005). The “Plasma Concentration” value in data set [3] (IP 10 mg/kg, 36 h, animal 1F001) is on record as 16100 ng/mL; in data set [3] (IP 10 mg/kg, 36 h, animal 1F002), 17400 ng/mL; in data set [3] (IP 10 mg/kg, 36 h, animal 1F003), 22000 ng/mL; in data set [3] (IP 10 mg/kg, 36 h, animal 1F005) it was 13400 ng/mL; in data set [3] (IP 10 mg/kg, 48 h, animal 1F001), 11200 ng/mL; in data set [3] (IP 10 mg/kg, 48 h, animal 1F002), 12400 ng/mL. In addition, the “Plasma Concentration” value in data set [3] (IP 10 mg/kg, 48 h, animal 1F003) turned out to be 13200 ng/mL; in data set [3] (IP 10 mg/kg, 48 h, animal 1F005), 7330 ng/mL. Moreover, the AUClast was found to be 1290 µg·h/mL in data set [3] (setting [5]), 1330 µg·h/mL in data set [3] (setting [6]), 1610 µg·h/mL in data set [3] (setting [7]) and 1050 µg·h/mL in data set [3] (setting [8]). For the same compound, the apparent clearance CL/F amounted to 0.104 mL/min/kg in data set [3] (setting [5]); 0.0981 mL/min/kg in data set [3] (setting [6]); 0.0829 mL/min/kg in data set [3] (setting [7]); 0.134 mL/min/kg in data set [3] (setting [8]); 0.105 mL/min/kg in data set [3] (setting [9]). Further, the peak concentration (Cmax) in data set [3] (setting [5]) came to 54500 ng/mL; in data set [3] (setting [6]), 51100 ng/mL; in data set [3] (setting [7]), 59300 ng/mL; in data set [3] (setting [8]) it was 43400 ng/mL; in data set [3] (setting [9]), 52100 ng/mL. Further, the Tmax was determined as 4.0 h in data set [3] (setting [5]); 4.0 h in data set [3] (setting [6]); 4.0 h in data set [3] (setting [7]); 4.0 h in data set [3] (setting [8]); 4.00 h in data set [3] (Table S3E: IP 10 mg/kg, female Balb/c mice, Mean N=4); 4 h in data set [3] (setting [9]). The Vz/F in data set [3] (setting [5]) was 0.179 L/kg; in data set [3] (setting [6]) it was 0.176 L/kg; in data set [3] (setting [7]) it was 0.151 L/kg; in data set [3] (setting [8]), 0.21 L/kg. In addition, the t1/2 in data set [3] (setting [5]) was determined as 20 h; in data set [3] (setting [6]), 21 h; in data set [3] (setting [7]) it was 21 h; in data set [3] (setting [8]), 18 h. This compound also came in with an AUC(0-t) in data set [3] (setting [9]) of 1320 µg·h/mL. Besides, the Vd/F in data set [3] (setting [9]) turned out to be 0.179 L/kg. The half-life in data set [3] (setting [9]) is 20 h. The same compound registered a level at 1 h in data set [3] (setting [9]) of 30800 ng/mL. The compound further registered a level at 2 h in data set [3] (setting [9]) of 44700 ng/mL. Moreover, in data set [3] (setting [9]), the level at 4 h amounted to 52100 ng/mL. In data set [3] (setting [9]), this compound gave a level at 8 h of 43800 ng/mL. This compound gave a level at 12 h in data set [3] (setting [9]) of 39000 ng/mL. In data set [3] (setting [9]), this compound showed a level at 24 h of 25400 ng/mL. The level at 36 h in data set [3] (setting [9]) was 17200 ng/mL. Further, the level at 48 h in data set [3] (setting [9]) is 11000 ng/mL.
